In the kinase profiling compilation of Christmann-Franck et al. (2016):

Assays:
[1] = target: PKN1 (human) (UniProt Q16512); test: IMAP-FP
[2] = target: PLK2 (human) (UniProt Q9NYY3); test: IMAP-FP
[3] = target: SRPK1 (human) (UniProt Q96SB4); test: IMAP-FP; conditions: compound 0.2 µM
[4] = target: BTK (human) (UniProt Q06187); test: Caliper, Mobility shift assay off-chip
[5] = target: CLK3 (human) (UniProt P49761); test: Caliper, Mobility shift assay off-chip
[6] = target: IGF1R (human) (UniProt P08069); test: Caliper, Mobility shift assay off-chip
[7] = target: PAK6 (human) (UniProt Q9NQU5); test: Caliper, Mobility shift assay off-chip
[8] = target: STK38 (human) (UniProt Q15208); test: Caliper, Mobility shift assay off-chip
Chain of STK38 (human) (Q15208 whole entry, looked up): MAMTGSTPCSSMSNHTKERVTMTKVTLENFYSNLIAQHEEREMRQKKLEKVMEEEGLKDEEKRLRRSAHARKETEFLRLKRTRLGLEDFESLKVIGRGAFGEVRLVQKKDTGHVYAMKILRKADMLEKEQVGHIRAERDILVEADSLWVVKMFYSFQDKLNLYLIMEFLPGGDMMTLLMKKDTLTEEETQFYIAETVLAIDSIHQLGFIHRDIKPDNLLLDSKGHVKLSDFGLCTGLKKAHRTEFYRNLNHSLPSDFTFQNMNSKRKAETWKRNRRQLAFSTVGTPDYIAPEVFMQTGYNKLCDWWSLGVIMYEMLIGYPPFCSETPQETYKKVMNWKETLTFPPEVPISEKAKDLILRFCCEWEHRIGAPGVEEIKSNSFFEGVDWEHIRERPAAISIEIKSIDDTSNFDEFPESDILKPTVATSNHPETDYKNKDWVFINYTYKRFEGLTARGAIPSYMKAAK

[9] = target: SYK (human) (UniProt P43405); test: Caliper, Mobility shift assay off-chip
[10] = target: BMPR1A (human) (UniProt P36894); test: ELISA
[11] = target: BRAF (human) (UniProt P15056); test: ELISA; conditions: compound 0.2 µM
[12] = target: LIMK1 (human) (UniProt P53667); test: ELISA
[13] = target: MAP2K1 (human) (UniProt Q02750); test: ELISA
[14] = target: MAP2K2 (human) (UniProt P36507); test: ELISA
[15] = target: MAP2K3 (human) (UniProt P46734); test: ELISA
[16] = target: MAP2K4 (human) (UniProt P45985); test: ELISA
[17] = target: MAP2K5 (human) (UniProt Q13163); test: ELISA; conditions: compound 0.2 µM
[18] = target: MAP2K6 (human) (UniProt P52564); test: ELISA
[19] = target: MAP2K7 (human) (UniProt O14733); test: ELISA
[20] = target: MAP3K1 (human) (UniProt Q13233); test: ELISA
Chain of MAP3K1 (human) (Q13233 whole entry, looked up): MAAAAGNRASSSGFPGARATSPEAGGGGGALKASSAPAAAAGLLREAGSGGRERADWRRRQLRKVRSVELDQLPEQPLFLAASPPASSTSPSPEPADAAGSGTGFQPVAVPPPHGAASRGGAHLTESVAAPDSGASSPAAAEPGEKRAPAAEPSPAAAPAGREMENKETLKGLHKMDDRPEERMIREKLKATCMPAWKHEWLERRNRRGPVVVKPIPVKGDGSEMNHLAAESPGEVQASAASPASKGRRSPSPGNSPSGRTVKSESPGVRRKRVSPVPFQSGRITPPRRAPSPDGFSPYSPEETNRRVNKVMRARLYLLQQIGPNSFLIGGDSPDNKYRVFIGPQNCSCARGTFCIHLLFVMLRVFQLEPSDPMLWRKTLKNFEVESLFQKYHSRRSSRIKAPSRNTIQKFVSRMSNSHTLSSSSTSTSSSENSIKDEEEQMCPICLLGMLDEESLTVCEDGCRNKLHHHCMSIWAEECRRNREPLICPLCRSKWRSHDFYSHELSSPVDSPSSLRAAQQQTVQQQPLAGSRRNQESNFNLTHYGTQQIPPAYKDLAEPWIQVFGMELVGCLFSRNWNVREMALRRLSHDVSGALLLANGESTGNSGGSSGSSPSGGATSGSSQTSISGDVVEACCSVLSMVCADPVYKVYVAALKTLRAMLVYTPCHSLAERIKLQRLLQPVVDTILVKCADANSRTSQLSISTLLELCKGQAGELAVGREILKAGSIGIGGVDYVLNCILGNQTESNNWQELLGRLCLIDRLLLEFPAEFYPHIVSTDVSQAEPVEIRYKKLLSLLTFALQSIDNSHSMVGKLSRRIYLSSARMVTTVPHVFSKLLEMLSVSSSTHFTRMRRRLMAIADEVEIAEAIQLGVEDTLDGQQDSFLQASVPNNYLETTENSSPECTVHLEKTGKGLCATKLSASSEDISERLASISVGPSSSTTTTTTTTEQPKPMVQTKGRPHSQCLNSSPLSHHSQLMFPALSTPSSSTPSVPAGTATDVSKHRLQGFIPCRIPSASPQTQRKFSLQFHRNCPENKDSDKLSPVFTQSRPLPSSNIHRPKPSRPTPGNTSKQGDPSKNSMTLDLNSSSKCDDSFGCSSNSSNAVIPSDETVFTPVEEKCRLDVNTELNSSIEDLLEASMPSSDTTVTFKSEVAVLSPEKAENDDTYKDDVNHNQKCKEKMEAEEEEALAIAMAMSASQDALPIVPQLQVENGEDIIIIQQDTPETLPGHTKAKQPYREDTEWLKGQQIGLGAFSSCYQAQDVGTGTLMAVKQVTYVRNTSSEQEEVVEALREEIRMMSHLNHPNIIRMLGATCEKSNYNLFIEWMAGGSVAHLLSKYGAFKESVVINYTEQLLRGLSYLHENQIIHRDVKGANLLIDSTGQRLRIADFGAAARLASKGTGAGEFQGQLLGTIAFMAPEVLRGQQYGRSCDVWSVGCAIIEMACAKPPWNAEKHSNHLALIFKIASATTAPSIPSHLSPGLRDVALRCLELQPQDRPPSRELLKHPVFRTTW

[21] = target: MAP3K10 (human) (UniProt Q02779); test: ELISA
[22] = target: MAP3K11 (human) (UniProt Q16584); test: ELISA
[23] = target: MAP3K12 (human) (UniProt Q12852); test: ELISA
Chain of MAP3K12 (human) (Q12852 whole entry, looked up): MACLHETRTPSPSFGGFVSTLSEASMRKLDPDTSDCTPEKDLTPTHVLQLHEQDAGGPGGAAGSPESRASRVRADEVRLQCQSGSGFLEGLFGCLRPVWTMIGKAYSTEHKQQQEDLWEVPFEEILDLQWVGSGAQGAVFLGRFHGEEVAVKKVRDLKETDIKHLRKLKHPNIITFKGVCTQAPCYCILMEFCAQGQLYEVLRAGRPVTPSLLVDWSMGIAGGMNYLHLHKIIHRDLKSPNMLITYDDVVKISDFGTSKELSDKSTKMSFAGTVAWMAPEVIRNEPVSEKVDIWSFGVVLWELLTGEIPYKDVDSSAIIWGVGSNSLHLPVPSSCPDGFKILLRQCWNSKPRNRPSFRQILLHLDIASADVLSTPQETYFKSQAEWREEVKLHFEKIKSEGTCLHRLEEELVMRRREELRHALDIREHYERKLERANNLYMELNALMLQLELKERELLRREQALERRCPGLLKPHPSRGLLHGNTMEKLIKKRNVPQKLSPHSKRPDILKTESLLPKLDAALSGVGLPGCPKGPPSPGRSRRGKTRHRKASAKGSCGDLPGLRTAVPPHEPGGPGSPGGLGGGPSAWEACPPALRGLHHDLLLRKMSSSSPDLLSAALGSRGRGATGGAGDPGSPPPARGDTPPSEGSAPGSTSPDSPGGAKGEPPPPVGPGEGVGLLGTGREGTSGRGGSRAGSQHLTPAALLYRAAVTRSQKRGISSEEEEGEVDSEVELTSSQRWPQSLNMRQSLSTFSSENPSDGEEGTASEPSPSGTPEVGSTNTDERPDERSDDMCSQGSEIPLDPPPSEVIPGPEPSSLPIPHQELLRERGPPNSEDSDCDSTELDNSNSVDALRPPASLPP

[24] = target: MAP3K2 (human) (UniProt Q9Y2U5); test: ELISA
[25] = target: MAP3K3 (human) (UniProt Q99759); test: ELISA
[26] = target: MAP3K4 (human) (UniProt Q9Y6R4); test: ELISA
[27] = target: MAP3K5 (human) (UniProt Q99683); test: ELISA
[28] = target: MAP3K8 (human) (UniProt P41279); test: ELISA
[29] = target: MAP3K9 (human) (UniProt P80192); test: ELISA
[30] = target: MOS (human) (UniProt P00540); test: ELISA
[31] = target: PLK4 (human) (UniProt O00444); test: ELISA
[32] = target: RAF1 (human) (UniProt P04049); test: ELISA
Chain of RAF1 (human) (P04049 whole entry, looked up): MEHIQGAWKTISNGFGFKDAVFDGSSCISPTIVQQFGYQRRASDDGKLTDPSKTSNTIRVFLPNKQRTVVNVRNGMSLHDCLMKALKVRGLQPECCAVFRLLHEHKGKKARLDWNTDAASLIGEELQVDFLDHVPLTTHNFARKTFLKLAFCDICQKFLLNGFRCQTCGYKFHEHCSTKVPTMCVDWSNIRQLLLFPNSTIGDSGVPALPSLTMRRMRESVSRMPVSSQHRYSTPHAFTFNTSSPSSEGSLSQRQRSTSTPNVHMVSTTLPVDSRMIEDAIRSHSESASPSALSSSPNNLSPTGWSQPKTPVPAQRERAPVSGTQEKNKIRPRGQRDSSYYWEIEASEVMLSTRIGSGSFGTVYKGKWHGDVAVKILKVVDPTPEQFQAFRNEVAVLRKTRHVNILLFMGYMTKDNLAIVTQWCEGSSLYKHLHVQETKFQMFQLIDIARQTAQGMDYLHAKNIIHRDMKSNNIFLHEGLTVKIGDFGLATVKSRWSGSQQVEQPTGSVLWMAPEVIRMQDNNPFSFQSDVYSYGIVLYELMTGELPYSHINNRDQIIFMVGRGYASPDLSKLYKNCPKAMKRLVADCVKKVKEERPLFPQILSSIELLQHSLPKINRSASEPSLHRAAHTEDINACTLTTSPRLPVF

[33] = target: STK11 (human) (UniProt Q15831); test: ELISA
Chain of STK11 (human) (Q15831 whole entry, looked up): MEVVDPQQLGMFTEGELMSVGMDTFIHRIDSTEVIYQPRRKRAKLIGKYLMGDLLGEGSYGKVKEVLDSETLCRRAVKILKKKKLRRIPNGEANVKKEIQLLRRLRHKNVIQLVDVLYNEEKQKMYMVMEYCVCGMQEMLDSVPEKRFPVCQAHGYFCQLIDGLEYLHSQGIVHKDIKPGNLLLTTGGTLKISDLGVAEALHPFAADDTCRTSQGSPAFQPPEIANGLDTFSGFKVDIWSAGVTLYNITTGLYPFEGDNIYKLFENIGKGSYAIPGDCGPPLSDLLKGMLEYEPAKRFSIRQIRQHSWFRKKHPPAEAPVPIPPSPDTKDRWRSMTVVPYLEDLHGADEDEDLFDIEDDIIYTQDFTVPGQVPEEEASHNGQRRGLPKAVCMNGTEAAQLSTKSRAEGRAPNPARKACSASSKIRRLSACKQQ

[34] = target: TTK (human) (UniProt P33981); test: ELISA
[35] = target: WEE1 (human) (UniProt P30291); test: ELISA

Chain of PKN1 (human) (Q16512 whole entry, looked up): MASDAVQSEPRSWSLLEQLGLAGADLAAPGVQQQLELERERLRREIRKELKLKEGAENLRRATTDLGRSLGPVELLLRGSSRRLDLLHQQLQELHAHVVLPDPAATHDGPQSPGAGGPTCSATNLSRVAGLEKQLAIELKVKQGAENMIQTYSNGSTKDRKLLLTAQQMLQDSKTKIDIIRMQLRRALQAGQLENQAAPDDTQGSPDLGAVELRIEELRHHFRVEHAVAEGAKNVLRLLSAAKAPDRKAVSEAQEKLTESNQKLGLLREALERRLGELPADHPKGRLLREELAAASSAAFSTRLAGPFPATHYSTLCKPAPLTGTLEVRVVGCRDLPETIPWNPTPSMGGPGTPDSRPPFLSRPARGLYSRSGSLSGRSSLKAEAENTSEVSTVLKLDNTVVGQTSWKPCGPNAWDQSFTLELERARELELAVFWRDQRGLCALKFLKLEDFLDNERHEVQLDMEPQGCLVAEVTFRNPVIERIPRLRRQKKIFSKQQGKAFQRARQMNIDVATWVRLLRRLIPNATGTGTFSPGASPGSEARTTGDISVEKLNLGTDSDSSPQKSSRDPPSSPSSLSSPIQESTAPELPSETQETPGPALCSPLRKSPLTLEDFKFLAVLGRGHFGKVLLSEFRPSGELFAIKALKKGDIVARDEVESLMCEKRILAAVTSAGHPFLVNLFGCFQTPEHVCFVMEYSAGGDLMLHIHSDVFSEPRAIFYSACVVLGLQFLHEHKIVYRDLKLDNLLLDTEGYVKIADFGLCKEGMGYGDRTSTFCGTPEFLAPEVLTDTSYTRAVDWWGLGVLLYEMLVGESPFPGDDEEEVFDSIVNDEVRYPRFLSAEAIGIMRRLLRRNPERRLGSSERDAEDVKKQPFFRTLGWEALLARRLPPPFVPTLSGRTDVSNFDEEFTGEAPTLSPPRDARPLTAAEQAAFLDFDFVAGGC

COc1cc2c(Oc3ccc4[nH]c(C)cc4c3F)ncnc2cc1OCCCN1CCCC1
inhibition ([1]; compound 0.02 µM): -35.8% | inhibition ([1]; compound 0.2 µM): -32.5% | inhibition ([2]; compound 0.02 µM): -0.9% | inhibition ([2]; compound 0.2 µM): -1.6% | inhibition [3]: -5.6% | inhibition ([4]; compound 0.02 µM): 3.4% | inhibition ([4]; compound 0.2 µM): 10.1% | inhibition ([5]; compound 0.02 µM): 11.9% | inhibition ([5]; compound 0.2 µM): -4.2% | inhibition ([6]; compound 0.02 µM): 1.4% | inhibition ([6]; compound 0.2 µM): -1.5% | inhibition ([7]; compound 0.02 µM): -2.2% | inhibition ([7]; compound 0.2 µM): -4.9% | inhibition ([8]; compound 0.02 µM): 9.6% | inhibition ([8]; compound 0.2 µM): -1.9% | inhibition ([9]; compound 0.02 µM): -4.7% | inhibition ([9]; compound 0.2 µM): -3.5% | inhibition ([10]; compound 0.02 µM): 8.3% | inhibition ([10]; compound 0.2 µM): -7.9% | inhibition [11]: 2% | inhibition ([12]; compound 0.02 µM): -7.3% | inhibition ([12]; compound 0.2 µM): -7.8% | inhibition ([13]; compound 0.02 µM): -0.6% | inhibition ([13]; compound 0.2 µM): -2.4% | inhibition ([14]; compound 0.02 µM): -4.9% | inhibition ([14]; compound 0.2 µM): -23% | inhibition ([15]; compound 0.02 µM): -7.4% | inhibition ([15]; compound 0.2 µM): -2.9% | inhibition ([16]; compound 0.02 µM): 0.9% | inhibition ([16]; compound 0.2 µM): -5.2% | inhibition [17]: -8.2% | inhibition ([18]; compound 0.02 µM): 2.8% | inhibition ([18]; compound 0.2 µM): -5% | inhibition ([19]; compound 0.02 µM): -6.9% | inhibition ([19]; compound 0.2 µM): -3.5% | inhibition ([20]; compound 0.02 µM): 1.2% | inhibition ([20]; compound 0.2 µM): -1% | inhibition ([21]; compound 0.02 µM): 3.6% | inhibition ([21]; compound 0.2 µM): 6% | inhibition ([22]; compound 0.02 µM): -1.7% | inhibition ([22]; compound 0.2 µM): -0.3% | inhibition ([23]; compound 0.02 µM): 8.9% | inhibition ([23]; compound 0.2 µM): 10.3% | inhibition ([24]; compound 0.02 µM): 1.9% | inhibition ([24]; compound 0.2 µM): 4.4% | inhibition ([25]; compound 0.02 µM): 1.2% | inhibition ([25]; compound 0.2 µM): 2.9% | inhibition ([26]; compound 0.02 µM): -1.7% | inhibition ([26]; compound 0.2 µM): -6.3% | inhibition ([27]; compound 0.02 µM): 8.7% | inhibition ([27]; compound 0.2 µM): 4% | inhibition ([28]; compound 0.02 µM): -3.2% | inhibition ([28]; compound 0.2 µM): -1% | inhibition ([29]; compound 0.02 µM): 4.9% | inhibition ([29]; compound 0.2 µM): 10.5% | inhibition ([30]; compound 0.02 µM): 4.2% | inhibition ([30]; compound 0.2 µM): 3.7% | inhibition ([31]; compound 0.02 µM): 7.6% | inhibition ([31]; compound 0.2 µM): 8.4% | inhibition ([32]; compound 0.02 µM): 3.1% | inhibition ([32]; compound 0.2 µM): -1.7% | inhibition ([33]; compound 0.02 µM): 0.9% | inhibition ([33]; compound 0.2 µM): 19% | inhibition ([34]; compound 0.02 µM): -4% | inhibition ([34]; compound 0.2 µM): -2% | inhibition ([35]; compound 0.02 µM): -5.4% | inhibition ([35]; compound 0.2 µM): 0.5%
